Experimental data taken from ChEMBL document CHEMBL3526006, “Metabolite profiling of bendamustine in urine of cancer patients after administration of [14C]bendamustine” (Drug Metab Dispos, 2012).

Legend:
Type in all cases: ADME, organism-based
[1] = Drug excretion in human urine assessed as retention time treated with [14C]bendamustine at 120 mg/m'2, iv after 2 hrs by 180 mins LC-LSC-MSn method
[2] = Drug excretion in human urine assessed as retention time treated with [14C]bendamustine at 120 mg/m'2, iv after 2 hrs by 60 mins LC-LSC-MSn method
[3] = Drug excretion in human urine treated with [14C]bendamustine at 120 mg/m'2, iv after 2 hrs by 60-min LC-LSC-MSn method; conditions: in vivo
[4] = Drug level in human urine treated with [14C]bendamustine at 120 mg/m'2, iv up to 168 hrs by 60-min LC-LSC-MSn method; conditions: in vivo
[5] = Drug recovery in human urine at 120 mg/m'2, iv administered as single dose measured up to 3 weeks; conditions: read-out: Drug recovery
[6] = Drug excretion in human urine assessed as 4-(6-(bis(2-hydroxyethyl)amino)-1-methyl-1H-benzo[d]imidazol-2-yl)butanoic acid formation at 120 mg/m'2, iv up to 168 hrs by 60-min LC-LSC-MSn method; conditions: in vivo
[7] = Total drug recovery in human at 120 mg/m'2, iv administered as single dose measured up to 3 weeks; conditions: in vivo, read-out: Drug recovery
[8] = Drug excretion in human urine assessed as 4-(6-((2-(2-amino-2-carboxyethylthio)ethyl)(2-hydroxyethyl)amino)-1-methyl-1H-benzo[d]imidazol-2-yl)-4-hydroxybutanoic acid formation at 120 mg/m'2, iv up to 168 hrs by 60-min LC-LSC-MSn method; conditions: in vivo
[9] = Drug excretion in human urine assessed as retention time at 120 mg/m'2, iv after 2 hrs by 180-min LC-LSC-MSn method
[10] = Drug excretion in human urine assessed as 4-(6-(bis(2-hydroxyethyl)amino)-1-methyl-1H-benzo[d]imidazol-2-yl)-4-hydroxybutanoic acid formation at 120 mg/m'2, iv up to 168 hrs by 60-min LC-LSC-MSn method; conditions: in vivo
[11] = Drug excretion in human urine assessed as 4-(6-((2-(2-amino-2-carboxyethylthio)ethyl)(2-hydroxyethyl)amino)-1-methyl-1H-benzo[d]imidazol-2-yl)butanoic acid formation at 120 mg/m'2, iv up to 168 hrs by 60-min LC-LSC-MSn method; conditions: in vivo

| SMILES | Retention_time [1] [min] | Retention_time [2] [min] | Drug excretion [3] [%] | other results |
| --- | --- | --- | --- | --- |
| Cn1c(CCCC(=O)O)nc2ccc(N(CCCl)CCOP(=O)(O)O)cc21 | 70.7 | 26.1 | > 1 | – |
| Cn1c(CCCC(=O)O)nc2ccc(N(CCO)CCS)cc21 | 64.4 | 24.2 | > 1 | – |
| Cn1c(CCCC(=O)O)nc2ccc(NCCCl)cc21 | 72.5 | 28.6 | > 1 | – |
| Cn1c(CCCC(=O)O)nc2ccc(NCC=O)cc21 | 29.4 | 16.9 | > 1 | – |
| Cn1c(CCCC(=O)O)nc2ccc(N(CCO)CCO)cc21 | 33.7 | 17.6 | > 1 | Drug excretion [4]: metabolite_detected |
| CC(=O)NC(CSCCN(CCCl)c1ccc2nc(CCCC(=O)O)n(C)c2c1)C(=O)O (centres undefined) | 97.6 | 32.2 | > 1 | – |
| Cn1c(CCCC(=O)O)nc2ccc(N(CCS)CCCl)cc21 | 99.4 | 35.1 | > 1 | – |
| Cn1c(C(O)CCC(=O)O)nc2ccc(N(CCCl)CCCl)cc21 (centres undefined) | 104.5 | 35.1 | > 1 | – |
| Cn1c(C(O)CCC(=O)O)nc2ccc(N(CCO)CCCl)cc21 (centres undefined) | 71.3 | 27.1 | > 1 | – |
| O=C(O)CCC(O)c1nc2ccc(N(CCCl)CCCl)cc2[nH]1 (centres undefined) | 105.1 | 35.3 | > 1 | – |
| Cl.Cn1c(CCCC(=O)O)nc2ccc(N(CCCl)CCCl)cc21 | – | – | – | dose excreted at 504 h [5]: 3%; Drug excretion [6]: metabolite_detected; dose excreted at 504 h [7]: 76%; Drug excretion [8]: metabolite_detected; Retention_time [9]: 36.3 min; Drug excretion [10]: metabolite_detected; Drug excretion [11]: metabolite_detected |
| CN1CC(=O)N=C1NCCN(CCO)c1ccc2nc(CCCC(=O)O)n(C)c2c1 | 24.2 | 13.9 | > 1 | – |
| Cn1c(CCCC(=O)O)nc2ccc(N(CCO)CCSCC(N)C(=O)O)cc21 (centres undefined) | 29 | 15.8 | > 1 | Drug excretion [4]: metabolite_detected |
| Cn1c(C(O)CCC(=O)O)nc2ccc(N(CCO)CCOP(=O)(O)O)cc21 (centres undefined) | 14.7 | 7.9 | > 1 | – |
| CN1CC(=O)N=C1NCCN(CCCl)c1ccc2nc(CCCC(=O)O)n(C)c2c1 | 54.6 | 23.1 | > 1 | – |
| Cn1c(C(O)CCC(=O)O)nc2ccc(NCCCl)cc21 (centres undefined) | 57.3 | 25.4 | > 1 | – |
| Cn1c(CCCC(=O)O)nc2ccc(N(CCO)CCOP(=O)(O)O)cc21 | 22 | 12.1 | > 1 | – |
| Cn1c(C(O)CCC(=O)O)nc2ccc(N(CCO)CCO)cc21 (centres undefined) | 23.8 | 13.3 | > 1 | Drug excretion [4]: metabolite_detected |
| Cn1c(CCCC(=O)O)nc2ccc(N(CCCl)CCSCC(N)C(=O)O)cc21 (centres undefined) | 73.7 | 26.5 | > 1 | – |
| Cn1c(CCCC(=O)O)nc2ccc(N(CCO)CCCl)cc21 | 82.7 | 29.2 | > 1 | – |
| O=C(O)CCCc1nc2ccc(N(CCO)CCO)cc2[nH]1 | 18.7 | 10.9 | > 1 | – |
| Cn1c(C(O)CCC(=O)O)nc2ccc(N(CCO)CCSCC(N)C(=O)O)cc21 (centres undefined) | 19.7 | 11 | > 1 | Drug excretion [4]: metabolite_detected |
